This assay relates to Alanine-aminopeptidase. The assay can be described thus: GRAM identification with impregnated bottle brush. The class given is cell-based, Gram-negative bacteria. As to conditions: for coloration intensity: semiquantitative scale up to 4. The text has this: According to a representative example, the GRAM identification process uses a substrate based on aminobenzene or a derivative thereof, such as DiMethyl-paraPhenyleneDiamine (DMpPD). In the example which follows, the substrate consists of Alanine-Dimethyl-paraPhenyleneDiamine (AlaDMpPD).
It functions as follows. Enzymatic hydrolysis causes release of the DMpPD group. Next, the DMPD binds with α-naphthol (or a derivative) by oxidative coupling facilitated by an oxidizing agent, potassium ferricyanide (K3Fe(CN)6). This then causes formation of a violet-gray complex.
Another device has been defined, which is even more specific in Gram identification and which can also be used with blood agars of Columbia type. It consists of:
a medium consisting of a blood agar of Columbia type (with or without AlaDMpPD), and
a reaction mixture which impregnates a bottle brush and which is constituted on the basis of α-naphthol, potassium ferricyanide and AlaDMpPD and then dried.
This reaction mixture contained in the bottle brush was further improved by adding a step of drying the bottle brushes, which facilitates their subsequent manipulation.
The exact composition is as follows:
for the agar, presence or absence of AlaDMpPD at 0.075 gram per liter (g/l), and
α-naphthol from 0.01 to 5 g/l, preferably from 0.1 to 1 g/l, and for example 0.5 g/l,
potassium ferricyanide from 0.01 to 5 g/l, preferably from 0.1 to 1 g/l, and for example 0.5 g/l, and
AlaDMpPD from 0.01 to 5 g/l, preferably from 0.1 to 1 g/l, and for example 0.35 g/l.
The results obtained in terms of sensitivity and specificity are thus the best obtained. In this case, the detection of the reaction is not instantaneous. It takes 15 to 30 seconds (s) to observe the appearance of any coloration, this being the time required for hydrolysis of the substrate by the bacterial aminopeptidase. […]

In the case of “Alanine-Dimethyl-paraPhenyleneDiamine [AlaDMpPD]”, the coloration intensity entry by setting is: (Gram-negative bacteria except Pseudomonas) “greater than 2”; (Gram-positive bacteria or false-positives except S. pyogenes) “less than 1”. Besides, the detection time (most Gram-positive bacteria or false-positives, apart from S. pyogenes) is over 10 s.
